These are literature values, as cited in patent US20160279133A1 (Farmalider, S.A., priority 2015, published 2016).

Where a name gives a salt, the structure may show the parent alone.

For one data set, the system named is male sexual dysfunction. The note with it: administered orally.

As to `CCCc1nn(C)c2c(=O)[nH]c(-c3cc(S(=O)(=O)N4CCN(C)CC4)ccc3OCC)nc12` [Sildenafil citrate], the solubility in water entry was “relatively insoluble”.
Consider `CCCc1nn(C)c2c(=O)[nH]c(-c3cc(S(=O)(=O)N4CCN(C)CC4)ccc3OCC)nc12` [Sildenafil, 5-[2-ethoxy-5-(4-methylpiperazin-1-yl-sulfonyl)phenyl]-1-methyl-3-n-propyl-1,6-dihydro-7H-pyrazolo[4,3-d]pyrimidin-7-one], for which, in the data set with male sexual dysfunction, the “efficacy in the treatment of male sexual dysfunction” value is “effective treatment”.
